Assay results published in US5434295A (priority 1994, dated 1995).
“Also recorded” adds a separate entry of the source. Like-named read-outs stand apart in the source and are kept apart here.

Tests used:
[1] = tested on: pyramidal cells in CA1 subfield of the hippocampus; assay: Histopathological evaluation of hippocampus in gerbils after bilateral common carotid artery occlusion; type: in vivo, Mongolian gerbils; details: drug 30 min after occlusion
Source text: Inhibition of ischemic neuronal damage in gerbils: Temporary blockage of the blood supply to the gerbil brain by surgical ligation of the two major arteries (common carotids) results in transient global forebrain ischemia. Temporary global ischemia produces a delayed, selective degeneration of neurons in the hippocampus, a brain structure essential for memory formation. The ability of various compounds to prevent hippocampal cell loss and the attendant memory deficits is considered a measure of their potency as neuroprotectants in ischemic conditions.
Mongolian gerbils (male), 65-70 gr (Tumblebrook Farm) underwent the ischemic procedure while anaesthetised with equithisine.
Common carotid arteries (CCA) were isolated and 3-0 silk suture material was positioned loosely round them. The tips of each loop were tied together, and the suture material was buried beside the trachea. The ventral neck incision was then sutured. In the following day, they were lightly anaesthetised with ether, the neck skin wounds were opened and both CCA were occluded for 10 minutes using small artery clips. During the ischemia and until the animals recovered (regaining righting reflexes), they were maintained in a warm state (36.5°-37.5° C. rectal temperature). […]
Histopathological evaluation. […] Then, 5 μm sections were cut from the area of the dorsal hippocampus, stained with H&E and cresyl violet, and evaluated according to the following system. The number of viable pyramidal cells in the medial, middle and lateral CA1 subfield of the hippocampus were counted under 400X magnification, along 0.4 mm in both sides. […]
Statistics. Neuroclinical appearance was analyzed using Wilcoxon Rank Sum Test. The histopathological evaluation was analyzed using One-Way ANOVA followed by Duncan's Test.
Gerbils were scored for their clinical symptoms following the ischemic insult according to the system described by Rudolphi et al. (Table 4). Each animal was evaluated daily over 4 consecutive days (Day 1 being the day of CCA occlusion). […]

[2] = tested on: MK-801 sites located at the NMDA receptor ion channel; assay: Inhibition of [3H]MK-801 binding to rat forebrain membranes; details: for % inhibition of tritiated ligand binding to membranes, 3[H]-MK-801: 100 μM analogue
Source text: Binding to the NMDA receptor linked channel: Non competitive antagonists of NMDA, the primary example of which is the compound MK-801, bind to a site within the NMDA receptor channel thus preventing the activation of the receptor-channel complex and the consequent neurotoxicity. The ability of various compounds to compete with the binding of tritium labeled MK-801 to brain membranes is considered a measure of their potency as NMDA non-competitive antagonists.
The association of pinene derivatives with acetylcholine-muscarinic receptor and with MK-801 sites located at the NMDA receptor ion channel.
Inhibition of ^3 [H]MK-801 binding to rat forebrain membranes by the test HU-211 compounds was carried out as described for HU-211 in Eshhar et al., NeuroReport 5, No. 3, 1993) (Methods section). The test compounds were solubilized in a mixture of ethanol:Emulfor:water (20:3:57).

[3] = tested on: NMDA-induced toxicity in primary cerebral cortical cell cultures; assay: Protection of cortical neurons in culture from NMDA-induced toxicity; type: cell-based; details: Rattus norvegicus, NMDA 1000 μM; for inhibition at 10 µM: 10 μM compound
Description: Blockage of NMDA toxicity in tissue culture: Neurons can be grown in culture and survive for several weeks. […] The ability of various compounds to prevent the morphological and metabolic changes induced by NMDA is considered a measure of their neuroprotective activity in culture.
The neuroprotective effects of the compounds of the invention were tested on neurons exposed to various excitotoxins in culture. The compounds tested included HU-259, HU-260, HU-270 and HU-271, which were all shown to have NMDA antagonist properties in mice (Example 13).
The test drugs were examined for their ability to protect neurons in culture from toxic effects of agonists of the different glutamate receptor subtypes (agonists of ionotropic and/or metabotropic glutamate receptors), e.g. NMDA, AMPA, kainate and quisqualate. The culture conditions and assay conditions were all performed as described in Eshhar et al. (NeuroReport 5, No. 3, 1993). In brief, primary cerebral cortical cell cultures were prepared from 18-20 day old rat fetuses by enzymatic dissociation. Resulting cell suspensions were plated on confluent cortical glial cell feder layer (prepared 2 weeks earlier by a similar method). Neurons were grown in MEM media containing 0.6% glucose, FUDR/Uridine mixture and N2 supplement (insulin, progesterone, putrescine, selenium and transferrin). Cells at 10 days in culture were exposed to the various toxins either alone, or in the presence of the tested compounds. All exposures were carried out at 37° C. for 20-24 hours before assessing neuronal cell damage and neuroprotectant activity. Cell viability was determined morphologically following neuron specific enolase immunostaining of cells using the ABC biotin-avidin complex method, and determined quantitatively by measuring the extent of mitochondrial activity in living cells using the XTT-based assay. XTT is reduced by mitochondrial dehydrogenase to a soluble colored formazan. The density of color formation (O.D.), which is proportional to mitochondrial activity, was measured by a plate ELISA reader. The extent of neuroprotectant activity is expressed as % of cells rescued by the drugs tested.
Neuroprotectant activity of HU-259 (10 μM)--was assessed using orphological criteria only. Morphological observations (as determined by neuron specific enolase immunostaining) clearly indicated complete neuroprotection (100%).

[4] = tested on: acetylcholine-muscarinic receptor; type: binding, rat; details: 100 μM analogue
AMPA/kainate receptors = assay: Effect on kainate responses in oocytes; type: biochemical, rat
hypobaric anoxia in mice = assay: Survival of mice exposed to hypobaric anoxia; type: in vivo; details: 200 mmHg, 5 mg/kg i.p. in MCT oil, 45 min before
Description: Protection against hypobaric anoxia in mice: Exposure of mice to a hypobaric (200 mmHg) atmosphere reduces the amount of oxygen available to the animals and results in death within 1-2 minutes in untreated mice. Pretreatment with compounds that can counteract the effects of oxygen deprivation prolong (double or more) the survival time of mice subjected to this treatment. The increase in survival time is a measure of the potency of the compounds in counteracting anoxic damage in vivo.
Hypobaric Anoxia was used as a system for testing the neuroprotective effects of test compounds, HU-270 and HU-271. The experimental paradigm was derived from that described by Gotti and Depoortere, Congres de Circ. Cerebrale, Toulouse, 105-107 (1979). Briefly, mice in groups of 5 were placed in a chamber which was equilibrated at an atmospheric pressure of 200 mmHg (by evacuation via a vacuum pump). The mice were observed until they stopped breathing and the time was recorded for each mouse. The test compounds were administered 45 min before introducing the animals into the chamber. In all cases the experiment was performed in a masked vehicle controlled study to avoid bias on the part of the observer. Each mouse received the drug dissolved in MCT oil intraperitoneally at a dose of 5 mg/kg, or the vehicle alone (MCT oil, 5 ml/kg).

[5] = Cortical neurone, read-out: % of cells rescued from NMDA-induced toxicity

| Compound | histopathological damage / survival of hippocampal cells [1] | % inhibition of tritiated ligand binding to membranes, 3[H]-MK-801 [2] [%] | Ki ([2]; [3H]MK801 binding, rat forebrain membranes, representative experiment in triplicate (HU259), read-out: inhibition constant (K1)) [µM] | inhibition at 10 µM ([3]; morphological criteria only (neuron specific enolase immunostaining), read-out: % of cells rescued from NMDA-induced toxicity / complete neuroprotection) [%] | % inhibition of tritiated ligand binding to membranes, 3[H]QNB [4] [%] | effect on kainate responses (AMPA/kainate receptors) | inhibition at 10 µM [3, 5] [%] | survival of mice exposed to hypobaric anoxia (hypobaric anoxia in mice) | inhibition at 1 µM ([3]; Cortical neurone, 1 μM compound, read-out: % of cells rescued from NMDA-induced toxicity (concentration dependence)) [%] | inhibition at 2 µM ([3]; Cortical neurone, 2 μM compound, read-out: % of cells rescued from NMDA-induced toxicity (concentration dependence)) [%] | inhibition at 5 µM ([3]; Cortical neurone, 5 μM compound, read-out: % of cells rescued from NMDA-induced toxicity (concentration dependence)) [%] |
| --- | --- | --- | --- | --- | --- | --- | --- | --- | --- | --- | --- |
| CCCCCCC(C)(C)c1cc(OC(C)=O)c([C@H]2C=C(C(=O)O)[C@H]3C[C@@H]2C3(C)C)c(OC(C)=O)c1 [(+)-4-[4-DMH-2,6 diacetoxyphenyl]-2-carboxy-6,6-dimethylbicyclo[3.1.1]hept-2-en] | significantly decreased compared to control groups | 90.0 | 7.6 | 100 | 98.0 | no effect | – | – | – | – | – |
| CCCCCCC(C)(C)c1cc(OC(C)=O)c([C@H]2C=C(C(=O)N(CC)CC)[C@H]3C[C@@H]2C3(C)C)c(OC(C)=O)c1 [HU-270] | increased survival of hippocampal cells | – | – | – | – | – | 0 | increased survival; also recorded: statistically significant increase of survival time | – | – | – |
| CCCCCCC(C)(C)c1cc(OC(C)=O)c([C@H]2C=C(C(=O)NCCO)[C@H]3C[C@@H]2C3(C)C)c(OC(C)=O)c1 [HU-271] | increased survival of hippocampal cells | 46.3 | – | – | 98.3 | – | 100 | increased survival; also recorded: statistically significant increase of survival time | 25 | 27 | 68 |
